What was measured:
p-4EBP1 (T70), PP2A = assay: Western blot of p-4EBP1 and p-PP2Ac; type: cell-based, human; conditions: H1299 and A549 cells
[1] = tested on: MDA-MB-231 tumor xenografts; assay: Tumor xenograft growth in mice; type: in vivo; conditions: intravenous injection, over 4 weeks
Procedure: (§1) The effects of Pac 1 and Pac 2 were next examined on PKR protein expression in HeLa cells using Western blot analysis. […] No reduction in normal cell viability was observed after treatment with Pac 1 or Pac 2 (FIGS. 5F and G). […] Because most of the cancer cell lines that were tested were more sensitive to Pac 1 than to Pac 2, Pac 1 was further investigated.
(§2) Analysis of in vivo tumor growth after treatment with Pac 1: For in vivo tumor studies, MDA-MB-231 or H1299 cells (˜1×10^6) were resuspended in 0.1 mL of PBS and injected subcutaneously into the flanks of female severe combined immunodeficiency mice. When the resulting tumors reached 100-150 mm^3 in volume, the mice were stratified into groups of eight animals, with each group having approximately equal mean tumor volumes, and administered intravenous injection of Pac 1. The animals were weighed weekly, and their tumor diameters were measured twice weekly. When a tumor reached 2000 mm^3 or became necrotic, the animal was killed.

H1299 tumor xenografts = assay: Tumor xenograft growth in mice; type: in vivo
Procedure: as §1, §2

Toxicity in mice = conditions: 50 mg/kg intravenously daily for 7 days
PI4KIIIb = PI4KIIIb (Homo sapiens, UniProt Q9UBF8); assay: ADP-Glo kinase assay, high-throughput enzymatic screening (Reaction Biology); type: biochemical
[2] = tested on: 127 human lung cancer cell lines; assay: SRB assay, oncopanel of 127 lung cancer cell lines; type: cell-based
Text: Antiproliferative effect of Pac 1 and Pac 2 on an oncopanel of lung cancer cell lines: The antiproliferative effect of treatment with Pac1 were further tested on an oncopanel of 127 cell lines of various lung tumor origins. […] RPPA analysis of Pac 1-sensitive cells identified correlation with higher expression of GSK3 (FIG. 16B), and Pac 1-resistant cells correlation with higher expression of IRS1, Caveolin and PKCA (PS657) (FIG. 16B). Analyzed the Pac1 sensitivity with gene mutation observed that low Pac 1 IC50 correlated with VCAN and ZNF804A mutation, and high Pac 1 IC50 correlated with LOXHD1 and CDH12 mutation (FIG. 16C). VCAN mutant lung cancer cells are sensitive to treatment of Pac 1.
(§3) Cell viability assays: For SRB assays, cells (2-8×10^3/well in 100 μL of culture medium) were seeded in 96-well flat-bottomed plates and treated the next day with compounds at the indicated concentrations. After the indicated treatments, cells were fixed with trichloroacetic acid. The protein was stained with SRB, and the optical density at 570 nm was determined. Relative cell viability was calculated by setting the viability rate of the control cells (exposed only to dimethyl sulfoxide) at 100% and comparing the viability of the treated cells with that of the controls. The experiments were performed at least three times for each cell line. The viability of leukemia cell lines was determined by using a 3-(4,5-dimethylthiazol-2-yl)-2,5-diphenyltetrazolium bromide assay.

PI3Kb = PI3Kb (Homo sapiens, UniProt P42338); assay: ADP-Glo kinase assay, high-throughput enzymatic screening (Reaction Biology); type: biochemical
PI4KIIb = PI4KIIb (Homo sapiens, UniProt Q8TCG2); assay: as above; type: biochemical
[3] = tested on: acidic vesicular organelles (lysosomes); assay: LysoTracker Red staining; type: cell-based, human; conditions: HeLa, H1299, and MDA-MB-231 cells, 5 μM, 72 hours
Text: Western blotting was next used to evaluate proteins known to be involved in AP-1/2/3 complexes in lung (H1299) and breast (MDA-MB-231) cancer cells after treatment with Pac 1 or Pac 2. […] AP-1 and AP-2 mediate protein sorting in the endosome, trans-Golgi network, and plasma membrane. […] The impact of Pac 1 was then investigated on lysosome function by staining cells with the acidophilic dye LysoTracker Red.
LysoTracker red staining, confocal microscopy, and tem: The acidophilic dye LysoTracker Red stains lysosomes. Cancer cells (1×10^5 cells/well) were grown on two-well chamber slides (Becton Dickinson Labware, Bedford, MA) to 70% confluence and then treated with PKR siRNA or control siRNA. Forty-eight hours later (when cells had grown to 70-80% confluence), the medium was replaced with medium containing 75 nM LysoTracker Red. The cells were incubated with LysoTracker Red for 1 hour and then rinsed one time with 1 mL of PBS. The cells were kept in PBS for microscopic imaging.

HeLa cells = assay: SRB cell viability assay; type: cell-based, human; conditions: 72 hours after treatment
Procedure: Anticancer effects of PKR-targeting compounds depend on PKR expression status: To identify compounds that can target lysosomes in PKR-positive cells or MVBs/exosomes in PKR-negative cells, the 10,000-compound ChemBridge library was screened for compounds with different effects on the growth of HeLa and HeLaPKRkd cells. […] SRB assays were next used to determine cell viability after treatment with Pac 1 or Pac 2.
as §3
Identification of PKR-associated compounds and cytotoxicity studies: The library of 10,000 compounds was screened for those with different effects on the growth of HeLa and HeLaPKRkd cells. […] Treated cells were observed under a microscope to detect morphologic changes, and their viability was determined using SRB assays 2 and 3 days after treatment. […]
For the SRB assay, cells (2-8×10^3/well in 100 μL of culture medium) were seeded in 96-well flat-bottomed plates and treated the next day with compounds at the indicated concentrations. […] The cells were stained using SRB, and the optical density at 570 nm was determined. Relative cell viability was determined by setting the viability of the control cells (exposed only to dimethyl sulfoxide) at 100% and comparing their viability with that of the treated cells. […]

PI3Ka = PI3Ka (Homo sapiens, UniProt P42336); assay: ADP-Glo kinase assay, high-throughput enzymatic screening (Reaction Biology); type: biochemical
PKR = PKR (Homo sapiens, UniProt P19525); assay: as above; type: biochemical
[4] = tested on: normal cells (HBE, human mammary epithelial cells); assay: SRB cell viability assay, normal cells; type: cell-based; conditions: 72 hours after treatment, HBE and human mammary epithelial cells
Procedure: as §1, §3
For the SRB assay, cells (2-8×10^3/well in 100 μL of culture medium) were seeded in 96-well flat-bottomed plates and treated the next day with compounds at the indicated concentrations. […] The cells were stained using SRB, and the optical density at 570 nm was determined. […]

Sequence of PKR (P19525 whole entry): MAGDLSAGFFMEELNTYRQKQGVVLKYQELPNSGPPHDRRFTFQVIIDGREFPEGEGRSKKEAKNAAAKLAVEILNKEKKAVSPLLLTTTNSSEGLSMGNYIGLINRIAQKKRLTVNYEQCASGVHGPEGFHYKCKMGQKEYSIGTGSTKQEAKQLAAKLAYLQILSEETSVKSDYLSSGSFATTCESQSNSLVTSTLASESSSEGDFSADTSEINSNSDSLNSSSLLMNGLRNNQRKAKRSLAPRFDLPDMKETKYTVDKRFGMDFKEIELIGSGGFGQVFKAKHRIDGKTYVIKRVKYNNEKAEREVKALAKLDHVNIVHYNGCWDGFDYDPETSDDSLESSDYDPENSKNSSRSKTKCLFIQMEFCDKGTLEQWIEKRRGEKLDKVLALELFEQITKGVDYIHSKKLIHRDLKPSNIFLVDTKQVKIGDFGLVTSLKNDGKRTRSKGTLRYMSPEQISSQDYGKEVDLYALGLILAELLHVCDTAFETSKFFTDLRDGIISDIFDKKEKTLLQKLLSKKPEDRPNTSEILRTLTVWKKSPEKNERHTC
Sequence of PI3Kb (P42338 whole entry): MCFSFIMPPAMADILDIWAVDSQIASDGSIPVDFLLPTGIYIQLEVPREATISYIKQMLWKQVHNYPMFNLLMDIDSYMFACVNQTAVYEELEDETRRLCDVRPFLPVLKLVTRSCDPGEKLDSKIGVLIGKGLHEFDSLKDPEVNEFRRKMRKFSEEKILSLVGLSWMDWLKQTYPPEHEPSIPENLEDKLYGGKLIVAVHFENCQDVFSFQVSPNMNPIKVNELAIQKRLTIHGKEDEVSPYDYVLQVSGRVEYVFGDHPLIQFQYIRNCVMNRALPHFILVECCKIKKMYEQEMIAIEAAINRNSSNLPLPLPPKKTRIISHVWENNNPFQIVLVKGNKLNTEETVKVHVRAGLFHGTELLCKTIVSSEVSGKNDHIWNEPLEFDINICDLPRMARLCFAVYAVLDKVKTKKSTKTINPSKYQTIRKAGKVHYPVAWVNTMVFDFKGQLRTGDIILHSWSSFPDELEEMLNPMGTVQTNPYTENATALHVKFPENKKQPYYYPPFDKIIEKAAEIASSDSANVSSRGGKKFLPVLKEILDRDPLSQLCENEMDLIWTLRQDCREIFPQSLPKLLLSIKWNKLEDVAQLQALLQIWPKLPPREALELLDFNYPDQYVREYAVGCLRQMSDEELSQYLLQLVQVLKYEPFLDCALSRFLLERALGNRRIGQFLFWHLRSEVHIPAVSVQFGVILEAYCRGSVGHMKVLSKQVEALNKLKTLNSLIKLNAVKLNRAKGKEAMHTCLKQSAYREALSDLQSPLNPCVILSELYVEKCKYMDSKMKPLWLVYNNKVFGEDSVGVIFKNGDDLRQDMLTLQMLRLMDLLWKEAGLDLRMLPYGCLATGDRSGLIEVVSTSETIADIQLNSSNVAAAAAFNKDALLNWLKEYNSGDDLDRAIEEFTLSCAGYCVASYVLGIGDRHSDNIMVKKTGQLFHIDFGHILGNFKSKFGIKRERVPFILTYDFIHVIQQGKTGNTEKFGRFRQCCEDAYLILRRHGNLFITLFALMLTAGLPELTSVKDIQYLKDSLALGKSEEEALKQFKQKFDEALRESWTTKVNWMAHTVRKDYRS
Sequence of PI3Kb (P27986 whole entry partner): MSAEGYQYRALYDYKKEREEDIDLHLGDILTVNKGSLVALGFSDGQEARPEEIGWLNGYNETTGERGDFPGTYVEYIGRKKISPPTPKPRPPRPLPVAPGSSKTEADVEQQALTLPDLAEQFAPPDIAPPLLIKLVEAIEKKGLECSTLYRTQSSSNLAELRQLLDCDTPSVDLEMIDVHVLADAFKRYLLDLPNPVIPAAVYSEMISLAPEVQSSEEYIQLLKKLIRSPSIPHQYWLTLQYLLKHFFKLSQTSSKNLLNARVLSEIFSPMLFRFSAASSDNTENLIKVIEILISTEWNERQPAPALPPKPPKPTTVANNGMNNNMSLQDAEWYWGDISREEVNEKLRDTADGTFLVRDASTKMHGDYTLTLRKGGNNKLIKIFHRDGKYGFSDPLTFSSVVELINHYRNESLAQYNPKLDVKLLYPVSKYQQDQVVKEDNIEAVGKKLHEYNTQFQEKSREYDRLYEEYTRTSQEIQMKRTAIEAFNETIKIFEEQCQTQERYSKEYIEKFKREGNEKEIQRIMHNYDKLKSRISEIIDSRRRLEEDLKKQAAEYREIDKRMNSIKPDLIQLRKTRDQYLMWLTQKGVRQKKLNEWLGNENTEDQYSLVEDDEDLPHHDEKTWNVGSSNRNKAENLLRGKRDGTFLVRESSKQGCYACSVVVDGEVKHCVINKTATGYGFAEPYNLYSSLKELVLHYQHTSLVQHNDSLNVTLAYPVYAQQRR
Sequence of PI4KIIb (Q8TCG2 whole entry): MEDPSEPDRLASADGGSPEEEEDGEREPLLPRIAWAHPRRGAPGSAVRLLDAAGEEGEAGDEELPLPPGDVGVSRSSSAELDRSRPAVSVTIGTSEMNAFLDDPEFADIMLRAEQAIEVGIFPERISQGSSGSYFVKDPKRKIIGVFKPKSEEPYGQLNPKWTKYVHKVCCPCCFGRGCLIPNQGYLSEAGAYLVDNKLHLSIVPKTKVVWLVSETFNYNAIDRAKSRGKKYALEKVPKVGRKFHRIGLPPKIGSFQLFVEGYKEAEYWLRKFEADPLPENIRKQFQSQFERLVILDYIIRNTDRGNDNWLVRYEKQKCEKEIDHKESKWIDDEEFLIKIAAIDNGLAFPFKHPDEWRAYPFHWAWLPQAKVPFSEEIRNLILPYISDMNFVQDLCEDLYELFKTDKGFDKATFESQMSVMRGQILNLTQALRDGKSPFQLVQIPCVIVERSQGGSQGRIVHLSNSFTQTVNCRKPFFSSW
Sequence of PI3Ka (P42336 whole entry): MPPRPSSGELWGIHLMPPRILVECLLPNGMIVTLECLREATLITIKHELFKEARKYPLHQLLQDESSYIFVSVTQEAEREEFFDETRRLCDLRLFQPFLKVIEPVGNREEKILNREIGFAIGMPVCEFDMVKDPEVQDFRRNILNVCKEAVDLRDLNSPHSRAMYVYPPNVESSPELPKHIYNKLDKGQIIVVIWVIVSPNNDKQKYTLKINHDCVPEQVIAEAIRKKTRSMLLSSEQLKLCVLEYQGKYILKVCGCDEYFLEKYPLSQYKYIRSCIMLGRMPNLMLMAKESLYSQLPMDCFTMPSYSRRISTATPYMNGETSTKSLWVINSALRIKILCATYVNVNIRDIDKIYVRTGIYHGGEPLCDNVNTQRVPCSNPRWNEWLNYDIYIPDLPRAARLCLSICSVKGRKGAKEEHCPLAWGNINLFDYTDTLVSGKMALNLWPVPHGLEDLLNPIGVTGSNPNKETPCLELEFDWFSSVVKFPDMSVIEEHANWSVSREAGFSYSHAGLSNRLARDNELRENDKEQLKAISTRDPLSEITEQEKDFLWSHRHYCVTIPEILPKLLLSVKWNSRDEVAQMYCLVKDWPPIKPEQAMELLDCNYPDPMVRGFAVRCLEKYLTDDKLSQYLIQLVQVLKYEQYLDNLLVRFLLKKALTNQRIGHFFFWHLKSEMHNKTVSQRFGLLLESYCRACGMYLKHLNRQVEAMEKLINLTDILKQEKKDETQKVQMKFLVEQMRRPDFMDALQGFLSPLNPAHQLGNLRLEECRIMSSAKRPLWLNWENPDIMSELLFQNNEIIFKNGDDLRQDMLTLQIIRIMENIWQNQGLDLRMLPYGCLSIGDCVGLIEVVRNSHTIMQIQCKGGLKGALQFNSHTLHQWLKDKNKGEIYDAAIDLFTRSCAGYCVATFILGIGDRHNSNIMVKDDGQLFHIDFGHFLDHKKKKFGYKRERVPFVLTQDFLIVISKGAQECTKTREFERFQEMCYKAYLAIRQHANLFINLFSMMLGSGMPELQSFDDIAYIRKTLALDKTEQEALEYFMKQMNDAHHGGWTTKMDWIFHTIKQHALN
Sequence of PI3Ka (P27986 whole entry partner): as the sequence (P27986 whole entry partner) above
Sequence of PI4KIIIb (Q9UBF8 whole entry): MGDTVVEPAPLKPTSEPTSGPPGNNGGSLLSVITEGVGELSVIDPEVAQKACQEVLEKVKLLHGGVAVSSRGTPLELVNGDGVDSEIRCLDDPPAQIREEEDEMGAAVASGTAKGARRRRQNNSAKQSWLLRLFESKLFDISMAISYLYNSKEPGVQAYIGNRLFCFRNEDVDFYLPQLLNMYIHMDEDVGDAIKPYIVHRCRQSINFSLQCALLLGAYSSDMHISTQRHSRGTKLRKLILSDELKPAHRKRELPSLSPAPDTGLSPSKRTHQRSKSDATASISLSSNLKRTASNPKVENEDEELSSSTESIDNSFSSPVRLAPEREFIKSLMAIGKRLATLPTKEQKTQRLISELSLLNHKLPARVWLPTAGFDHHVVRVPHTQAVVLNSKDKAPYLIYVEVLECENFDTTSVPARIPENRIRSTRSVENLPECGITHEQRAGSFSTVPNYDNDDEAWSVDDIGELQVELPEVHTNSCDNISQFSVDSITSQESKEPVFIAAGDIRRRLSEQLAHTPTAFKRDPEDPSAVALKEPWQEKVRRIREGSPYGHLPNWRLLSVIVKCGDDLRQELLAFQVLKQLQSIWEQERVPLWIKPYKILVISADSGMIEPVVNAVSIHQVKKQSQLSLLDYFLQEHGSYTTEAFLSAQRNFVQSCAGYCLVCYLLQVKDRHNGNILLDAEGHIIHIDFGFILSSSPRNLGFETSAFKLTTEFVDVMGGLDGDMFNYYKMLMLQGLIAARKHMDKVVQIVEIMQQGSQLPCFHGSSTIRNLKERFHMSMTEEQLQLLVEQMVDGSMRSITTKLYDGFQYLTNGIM

O=C(N/N=C\c1c(O)ccc2ccccc12)c1cccc2cc[nH]c12 [Pac 1, N′—[(Z)-(2-Hydroxy-1-naphthyl)methylene]-1H-indole-7-carbohydrazide]
PP2A activity, indicated by dissociation of the p-PP2Ac complex (p-4EBP1 (T70), PP2A): Inactivation of PP2A was observed | expression of p-4EBP1 (T70) protein (p-4EBP1 (T70), PP2A; 72 hours after treatment): reduction of expression | growth of MDA-MB-231 tumor xenografts [1]: inhibited the growth | expression of PKR, p-PKR, and Ki-67 protein in tumors (H1299 tumor xenografts; H1299 tumors, immunohistochemical analysis): dramatically suppressed | growth of H1299 tumor xenografts (H1299 tumor xenografts; intravenous injection, over 4 weeks): inhibited the growth | blood chemistry: aspartate aminotransferase, SGOT, SGPT, alkaline phosphatase, creatine kinase, lactate dehydrogenase levels (Toxicity in mice): normal | histopathologic examination of major organs (Toxicity in mice; heart, lungs, liver, kidneys, pancreas, spleen): no significant changes in any major organs | inhibition of kinase activity (PI4KIIIb): not other kinases | IC50 ([2]; Homo sapiens, sensitive cell lines of the oncopanel of 127 lung cancer cell lines): 10 to 950 nM | sensitivity of VCAN mutant lung cancer cells ([2]; VCAN mutants versus VCAN wild-type cells): sensitive | share of cell lines sensitive ([2]; oncopanel of 127 cell lines of various lung tumor origins): Sixty-five | inhibition of kinase activity (PI3Kb): not other kinases | inhibition of kinase activity (PI4KIIb): not other kinases | numbers of acidic vesicular organelles [3]: substantially decreased | viability of HeLa cells (HeLa cells): suppressed more effectively by Pac 1 than by Pac 2 | inhibition of kinase activity (PI3Ka): not other kinases | inhibition of PKR kinase activity (PKR): did not inhibit | normal cell viability [4]: No reduction

Reference: US12465610B2, “Compounds and methods for the treatment of PKR-associated diseases” (Board of Regents, The University of Texas System, priority 2019, dated 2025)
